Measurements reported in the supplement of paper PMC10331698.
± gives the standard deviation of the averaged measurements.

Experiments:
Experiment in all cases: level (log10 ratio to DMSO vehicle control); higher = higher biomarker level / cell amount than vehicle control
[1] = compound: O=C(Cl)C(F)(F)C(F)(F)C(F)(F)C(=O)Cl [Hexafluoroglutaryl chloride]; conditions: in DMSO
Protocol: (§1)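 BioMAP Diversity Plus panel of 12 human primary cell co-culture systems (3C, 4H, LPS, SAg, BT, BF4T, BE3C, CASM3C, HDF3CGF, KF3CT, MyoF, Mphg). Compounds were added 1 h before stimulation and left for 24 h (MyoF 48 h; BT 72 h for soluble read-outs or 6 d for IgG). Biomarkers were read by ELISA, cytotoxicity by SRB, PBMC viability and proliferation by Alamar Blue. Each well value was divided by the mean of 8 DMSO control wells on the same plate and log10 transformed; duplicate blinded samples were tested at 4 concentrations.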

[2] = compound: OCC(F)(F)C(F)(F)C(F)(F)C(F)(F)C(F)(F)C(F)(F)F [6:1 Fluorotelomer alcohol]; conditions: in DMSO
Protocol: as §1

[3] = compound: OCCCC(F)(F)C(F)(F)C(F)(F)C(F)(F)C(F)(F)C(F)(F)C(F)(F)C(F)(F)F [3-(Perfluorooctyl)propanol]; conditions: 6700 nM; in DMSO
Protocol: as §1

Perfluoropinacol = compound: OC(C(F)(F)F)(C(F)(F)F)C(O)(C(F)(F)F)C(F)(F)F [Perfluoropinacol]; conditions: in DMSO
Protocol: as §1

[4] = compound: C=C(C)C(=O)OCC(F)(F)C(F)(F)C(F)(F)F [2,2,3,3,4,4,4-Heptafluorobutyl methacrylate]; conditions: in DMSO
Protocol: as §1

[5] = compound: OCCC(F)(F)C(F)(F)C(F)(F)C(F)(F)C(F)(F)C(F)(F)C(F)(F)C(F)(F)F [8:2 Fluorotelomer alcohol]; conditions: 6700 nM; in DMSO
Protocol: as §1

Tetrafluorosuccinic acid = compound: O=C(O)C(F)(F)C(F)(F)C(=O)O [Tetrafluorosuccinic acid]; conditions: in DMSO
Protocol: as §1

[6] = compound: O=C(CC(=O)C(F)(F)C(F)(F)C(F)(F)F)c1cccs1 [(Perfluorobutyryl)-2-thenoylmethane]; conditions: in DMSO
Protocol: as §1

Test System	level (log10) ([1]; 6700 nM)	level (log10) ([1]; 20000 nM)	level (log10) ([1]; 60000 nM)	level (log10) ([2]; 6700 nM)	level (log10) ([2]; 20000 nM)	level (log10) ([2]; 60000 nM)	level (log10) [3]	level (log10) (Perfluoropinacol; 6700 nM)	level (log10) (Perfluoropinacol; 20000 nM)	level (log10) ([4]; 6700 nM)	level (log10) ([4]; 20000 nM)	level (log10) ([4]; 60000 nM)	level (log10) [5]	level (log10) (Tetrafluorosuccinic acid; 6700 nM)	level (log10) (Tetrafluorosuccinic acid; 20000 nM)	level (log10) (Tetrafluorosuccinic acid; 60000 nM)	level (log10) ([6]; 6700 nM)	level (log10) ([6]; 20000 nM)
BE3C:uPA	-0.0015 ± 0.0064	-0.004 ± 0.0028	-0.0035 ± 0.0064	-0.0055 ± 0.0021	-0.005 ± 0.013	0.001 ± 0.0014	-0.005 ± 0.0085	-0.0055 ± 0.005	-0.042 ± 0.011	-0.005 ± 0.013	0.005 ± 0.011	-0.002 ± 0.025	-0.0175 ± 0.00071	-0.007 ± 0.0057	-0.016 ± 0.021	-0.003 ± 0.013	0.0235 ± 0.00071	0.0095 ± 0.022
KF3CT:uPA	0.003 ± 0.0099	0.0235 ± 0.00071	0.015 ± 0.014	-0.0045 ± 0.0092	-0.002 ± 0.018	0.0085 ± 0.025	-0.0045 ± 0.025	0.0065 ± 0.035	0.019 ± 0.021	-0.0035 ± 0.011	-0.008 ± 0.021	-0.003 ± 0.0042	0.0155 ± 0.0078	-0.012 ± 0.0071	0.0025 ± 0.0064	-0.0285 ± 0.00071	0.021 ± 0.0014	0.0195 ± 0.005
KF3CT:CXCL10/IP-10	-0.0105 ± 0.013	0.0045 ± 0.0035	-0.0025 ± 0.015	0.0155 ± 0.0035	0.0055 ± 0.015	0.011	-0.053 ± 0.02	0.0025 ± 0.0035	-0.0205 ± 0.0064	0.0055 ± 0.00071	-0.001 ± 0.0057	0.0085 ± 0.005	-0.0355 ± 0.018	-0.006 ± 0.0028	-0.0055 ± 0.0064	-0.0075 ± 0.00071	-0.0205 ± 0.00071	-0.018 ± 0.0014
MyoF:TIMP-1	-0.04 ± 0.057	-0.024 ± 0.027	0.0175 ± 0.04	0.0125 ± 0.025	0.0145 ± 0.019	0.03 ± 0.013	-0.0115 ± 0.046	0.006 ± 0.016	-0.021 ± 0.0028	0.017 ± 0.028	0.0135 ± 0.025	0.0075 ± 0.0064	-0.0435 ± 0.025	-0.0045 ± 0.022	-0.0215 ± 0.04	-0.026 ± 0.069	-0.042 ± 0.047	-0.0405 ± 0.015
CASM3C:Proliferation	0.004 ± 0.0042	-0.012 ± 0.027	-0.031 ± 0.03	0.02 ± 0.037	0.0125 ± 0.0078	-0.664 ± 0.24	-0.026 ± 0.033	-0.02 ± 0.013	-0.122 ± 0.035	-0.012 ± 0.027	-0.0015 ± 0.0035	0.0215 ± 0.012	0.003 ± 0.017	0.001 ± 0.0057	-0.053 ± 0.016	-0.0085 ± 0.06	-0.0865 ± 0.013	-0.245 ± 0.018
lMphg:CXCL8/IL-8	0.023 ± 0.011	0.027 ± 0.018	0.0625 ± 0.05	0.0335 ± 0.016	0.0395 ± 0.035	0.0375 ± 0.0092	0.0655 ± 0.015	0.0875 ± 0.061	0.161 ± 0.066	0.037 ± 0.038	0.026 ± 0.021	0.027 ± 0.038	0.076 ± 0.024	-0.0205 ± 0.0064	-0.025 ± 0.021	-0.0175 ± 0.023	-0.022 ± 0.027	0.048 ± 0.011
KF3CT:CXCL8/IL-8	-0.0215 ± 0.013	-0.0275 ± 0.035	-0.0085 ± 0.0092	-0.0005 ± 0.025	-0.0045 ± 0.023	0.0025 ± 0.015	0.003 ± 0.0057	-0.018 ± 0.011	-0.005 ± 0.0042	-0.0045 ± 0.023	-0.0035 ± 0.015	-0.0035 ± 0.013	0.0035 ± 0.0035	-0.029 ± 0.011	-0.031 ± 0.0042	-0.0175 ± 0.026	-0.037 ± 0.027	-0.027 ± 0.025
